According to patent US11999737B2, “Kinase inhibitors and related methods of use” (Duke University, priority 2014, dated 2024):
Entries after “also recorded” stand apart in the source; their conditions may differ.

Legend:
intact mouse aorta = assay: Phenylephrine-induced contractile force of intact mouse aorta (myograph)
Experimental: A, Typical myograph force trace showing the effect of HS38 on intact mouse aorta contractility. The maximum contractile force of PE-induced contraction was reduced by approximately 30% when HS38 (10 μM) was added five minutes prior to PE addition and by approximately 40% when added ten minutes after PE addition. B, Serum-starved aortic SM cells were treated with SIP (0.25 μM) and HS-38 (±50 μM) for 30 min.
Tissue Preparation and Force Measurements. All protocols and procedures for tissue harvest were carried out according to protocols approved by the Animal Care and Use Committees at the University of Virginia and Duke University, Helical strips of mouse aorta or strips of rabbit ileum were dissected, (˜400 μm wide, 2 mm long) and mounted between two tungsten hooks on a bubble plate for force measurements (Horiuti (1988) J. Physiol.-London 398, 131-148). […] Intact strips of mouse abdominal aorta were challenged with phenylephrine following pretreatment with HS38 or diluent, DMSO or HS38 and DMSO were added after maximal phenylephrine-induced force was achieved and force output measured. […] For Ca^2+ activating solutions, EGTA (10 mM) and a calculated amount of Ca-methanesulfonate was added to give the desired free Ca^2+ concentration ((Horiuti (1988) J. Physiol.-London 398, 131-148).

[1] = system: human cerebral arterioles; assay: Pressure myography of isolated human cerebral arterioles, myogenic tone; conditions: HS-38 10 μM, ex vivo
Description: A human cerebral artery (CA) was harvested during a tumour removal. Cerebral tissue was obtained from a person with metastatic adenocarcinoma from lung. Surface vessels of the anterior cerebral artery off the midline over the left anterior frontal lobe were dissected for analysis. […] Pressure-induced changes in arteriolar diameter (A) as well as diameter-pressure relationships (B) and arterial constriction (C) are shown. Data are from n=1 vessel. The passive diameter at 120 mmHg was ˜290 μm. Vessels of similar diameter were isolated, proteins were extracted with SDS-PAGE buffer and immunoblotted (D) for ZIPK and α-actin as a loading control.
A human cerebral artery (CA) was harvested during a tumor removal. Cerebral tissue was obtained from a person with metastatic adenocarcinoma from lung. Surface vessels of the anterior cerebral artery off the midline over the left anterior frontal lobe were dissected for analysis. […]
Pressure-induced changes in arteriole diameter (A) as well as diameter-pressure relationships (B) and arterial constriction (C) are shown. […] Bands were quantified with a LAS4000 gel analyzer.
Tissues were obtained from patients undergoing resections for treatment for epilepsy or tumors. Surface vessels of ˜200 μm diameter were analyzed by pressure myography and western immunoblotting.

ROK2 = ROK2 (Rattus norvegicus, UniProt Q62868); assay: 33P-ATP filter-binding kinase assay
IRAK4 = molecular target: T1, IRAK4 (Homo sapiens, UniProt Q9NWZ3); assay: 33P-ATP filter-binding kinase assay
T1 sequence (Q9NWZ3 1-460): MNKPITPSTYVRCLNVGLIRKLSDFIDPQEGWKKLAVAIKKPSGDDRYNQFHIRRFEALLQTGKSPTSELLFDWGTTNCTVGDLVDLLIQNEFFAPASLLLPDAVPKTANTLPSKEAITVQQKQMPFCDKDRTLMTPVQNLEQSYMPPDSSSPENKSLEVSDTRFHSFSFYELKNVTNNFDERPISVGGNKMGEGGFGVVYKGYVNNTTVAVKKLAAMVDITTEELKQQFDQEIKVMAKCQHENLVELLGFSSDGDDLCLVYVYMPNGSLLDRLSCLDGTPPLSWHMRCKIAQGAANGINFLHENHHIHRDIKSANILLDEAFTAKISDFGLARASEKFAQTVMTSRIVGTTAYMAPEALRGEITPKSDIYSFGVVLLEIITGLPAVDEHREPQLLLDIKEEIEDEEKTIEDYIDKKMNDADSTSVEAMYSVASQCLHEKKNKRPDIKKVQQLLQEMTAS

DYRK2 = molecular target: T2, DYRK2 (Homo sapiens, UniProt Q92630); assay: 33P-ATP filter-binding kinase assay
T2 sequence (Q92630 1-601): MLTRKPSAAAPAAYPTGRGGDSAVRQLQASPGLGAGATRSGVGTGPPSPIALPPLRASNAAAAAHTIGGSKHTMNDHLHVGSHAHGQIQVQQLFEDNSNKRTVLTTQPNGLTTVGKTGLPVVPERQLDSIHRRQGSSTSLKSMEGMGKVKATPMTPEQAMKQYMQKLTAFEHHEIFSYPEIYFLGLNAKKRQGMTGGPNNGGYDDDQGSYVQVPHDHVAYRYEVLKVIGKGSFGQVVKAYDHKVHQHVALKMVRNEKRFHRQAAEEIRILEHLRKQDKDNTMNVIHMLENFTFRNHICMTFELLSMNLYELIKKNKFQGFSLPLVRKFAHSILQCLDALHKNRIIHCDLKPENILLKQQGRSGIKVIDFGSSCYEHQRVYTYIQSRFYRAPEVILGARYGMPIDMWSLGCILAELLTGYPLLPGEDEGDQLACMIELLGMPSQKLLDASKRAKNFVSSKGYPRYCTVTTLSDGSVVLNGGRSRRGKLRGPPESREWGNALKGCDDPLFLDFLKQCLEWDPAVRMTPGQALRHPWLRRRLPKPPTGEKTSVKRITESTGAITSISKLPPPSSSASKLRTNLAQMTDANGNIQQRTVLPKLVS

[2] = read-out: % Activity (10 μM HS38)

Sequence of ROK2 (Q62868 2-543): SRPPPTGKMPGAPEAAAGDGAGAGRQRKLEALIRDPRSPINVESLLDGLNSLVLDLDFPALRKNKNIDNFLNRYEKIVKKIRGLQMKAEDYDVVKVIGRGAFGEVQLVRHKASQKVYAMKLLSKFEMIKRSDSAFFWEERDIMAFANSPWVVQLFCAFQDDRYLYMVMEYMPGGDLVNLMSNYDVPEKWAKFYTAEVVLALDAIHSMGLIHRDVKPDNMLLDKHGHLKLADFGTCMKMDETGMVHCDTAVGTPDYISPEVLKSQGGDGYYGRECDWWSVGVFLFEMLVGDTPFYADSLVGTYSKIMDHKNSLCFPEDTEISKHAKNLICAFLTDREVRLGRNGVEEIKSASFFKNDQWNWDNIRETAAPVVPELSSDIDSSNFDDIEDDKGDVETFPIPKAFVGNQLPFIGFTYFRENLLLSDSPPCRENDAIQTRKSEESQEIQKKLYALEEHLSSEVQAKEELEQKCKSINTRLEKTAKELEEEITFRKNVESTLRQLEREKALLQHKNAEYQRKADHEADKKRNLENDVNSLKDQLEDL

For `CC(Sc1nc2c(cnn2-c2cccc(Cl)c2)c(=O)[nH]1)C(N)=O` (stereo not shown) [HS38], the “reduction of maximum contractile force of PE-induced contraction” value (intact mouse aorta; HS38 10 μM added five minutes prior to PE addition) was “approximately 30%”, the “reduction of maximum contractile force of PE-induced contraction” value (intact mouse aorta; HS38 10 μM added ten minutes after PE addition) was “approximately 40%” and the myogenic tone development [1] was “appeared to attenuate; also recorded: suppressed”. For the same molecule, the “activity against ROK2” value (ROK2) was “completely inactive”, the activity at 10 µM (ROK2; [2]) was 91% and the “fold less potent than against DAPK1 and PIM3” value (IRAK4) was ~10 fold. For the same molecule, the IC50 (IRAK4; mean ± S.D., n = 2) was 1.4 ± 0.4 µM, the activity at 10 µM (IRAK4; [2]) was 20% and the IC50 (DYRK2; mean ± S.D., n = 2) was 1.8 ± 0.6 µM. The activity at 10 µM (DYRK2; [2]) was 21%.
